Where “and” joins values, the source holds several entries; their conditions need not be identical. Identical values can stand only once. Inconclusive results and toxic doses are left out. The calls were made as follows: active = survival T/C of 150% or more; inactive = T/C below 125% in these data.
Tested on: P388 leukemia ip, CD2F1 mice, survival T/C
Assay: NCI In Vivo Anticancer Drug Screen. Data for tumor model P388 Leukemia (intraperitoneal) in CD2F1 (CDF1) mice
Settings: endpoint: median survival time, higher = longer survival
Outline: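 Mice carrying the transplanted tumor received test compound or vehicle. Survival was recorded in each group, and the value is the treated-group measurement divided by that of the vehicle-treated control group.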

[1] = dose: 50.0 mg/kg/injection, schedule: Q01DX005 (ip), vehicle: saline with Tween-80
[2] = dose: 100.0 mg/kg/injection, schedule: Q01DX005 (ip), vehicle: saline with Tween-80
[3] = dose: 200.0 mg/kg/injection, schedule: Q01DX005 (ip), vehicle: saline with Tween-80
[4] = dose: 50.0 mg/kg/injection, schedule: Q01DX009 (ip), vehicle: saline
[5] = dose: 100.0 mg/kg/injection, schedule: Q01DX009 (ip), vehicle: saline
[6] = dose: 50.0 mg/kg/injection, schedule: Q01DX009 (ip), vehicle: saline with Tween-80
[7] = dose: 100.0 mg/kg/injection, schedule: Q01DX009 (ip), vehicle: saline with Tween-80
[8] = dose: 200.0 mg/kg/injection, schedule: Q01DX009 (ip), vehicle: saline with Tween-80
[9] = dose: 25.0 mg/kg/injection, schedule: Q01DX009 (ip), vehicle: saline with Tween-80
[10] = dose: 50.0 mg/kg/injection, schedule: Q01DX005 (ip), vehicle: Klucel (hydroxypropylcellulose) (HPC)
[11] = dose: 100.0 mg/kg/injection, schedule: Q01DX005 (ip), vehicle: Klucel (hydroxypropylcellulose) (HPC)
[12] = dose: 200.0 mg/kg/injection, schedule: Q01DX005 (ip), vehicle: Klucel (hydroxypropylcellulose) (HPC)
[13] = dose: 60.0 mg/kg/injection, schedule: Q01DX005 (ip), vehicle: saline with Tween-80
[14] = dose: 120.0 mg/kg/injection, schedule: Q01DX005 (ip), vehicle: saline with Tween-80
[15] = dose: 240.0 mg/kg/injection, schedule: Q01DX005 (ip), vehicle: saline with Tween-80
[16] = dose: 12.5 mg/kg/injection, schedule: Q01DX009 (ip), vehicle: saline with Tween-80

Measured: T/C

Cc1ccc(S(=O)(=O)N/N=C/c2ccc(N(C)C)cc2)cc1
inactive: dose: 12.5 mg/kg/injection, schedule: Q01DX009 (ip), vehicle: other 113 % of control | dose: 25.0 mg/kg/injection, schedule: Q01DX009 (ip), vehicle: other 96 % of control | dose: 50.0 mg/kg/injection, schedule: Q01DX009 (ip), vehicle: other 109 % of control | dose: 100.0 mg/kg/injection, schedule: Q01DX009 (ip), vehicle: other 100 % of control | dose: 200.0 mg/kg/injection, schedule: Q01DX009 (ip), vehicle: other 106 % of control | dose: 400.0 mg/kg/injection, schedule: Q01DX009 (ip), vehicle: other 100 % of control

FC(F)(F)COP(c1ccccc1)c1ccccc1
inactive: [1] 113 % of control | [2] 111 % of control | [3] 114 % of control

CON(C)c1nc(N(C)C)nc(N(C)C)n1
inactive: [4] 91 % of control | [5] 98 % of control | dose: 200.0 mg/kg/injection, schedule: Q01DX009 (ip), vehicle: saline 96 % of control

O=NNc1ncnc2c1ncn2Cc1ccccc1
inactive: dose: 3.12 mg/kg/injection, schedule: Q01DX009 (ip), vehicle: water 103 % of control | dose: 6.25 mg/kg/injection, schedule: Q01DX009 (ip), vehicle: water 100 % of control | dose: 12.5 mg/kg/injection, schedule: Q01DX009 (ip), vehicle: water 112 % of control | dose: 25.0 mg/kg/injection, schedule: Q01DX009 (ip), vehicle: water 112 % of control | dose: 50.0 mg/kg/injection, schedule: Q01DX009 (ip), vehicle: water 112 % of control

O=C1C(N=Nc2ccc(Cl)cc2)Sc2nc3ccccc3n21 (configuration not stated)
inactive: dose: 60.0 mg/kg/injection, schedule: Q01DX005 (ip), vehicle: Klucel (hydroxypropylcellulose) (HPC) 92 % of control | dose: 120.0 mg/kg/injection, schedule: Q01DX005 (ip), vehicle: Klucel (hydroxypropylcellulose) (HPC) 90 % of control

CCCCCCCCCCCCCCCc1c(NC(C)(CC(C)(C)O)[P+](=O)O)c(=O)n(C)n1C (configuration not stated)
inactive: [4] 96 % of control | [5] 88 % of control

COC1C=COC2(C)Oc3c(C)c(O)c4c(O)c(c(C5SCCS5)c(O)c4c3C2=O)NC(=O)C(C)=C/C=C\C(C)C2OC(C)(C)OC(C2C)C(C)C(OC(C)=O)C1C (configuration not stated)
inactive: [6] 109 % of control | [7] 102 % of control | [8] 96 % of control

CCC1(C)c2cc(C)c(C(C)=O)cc2C(C)(C)C1C (configuration not stated)
inactive: [9] 100 % of control | [6] 101 % of control | [7] 100 % of control

O=C(CC(c1ccccc1)C(C(=O)O)c1ccccc1)c1ccccc1 (configuration not stated)
inactive: dose: 25.0 mg/kg/injection, schedule: Q01DX001 (ip), vehicle: saline with Tween-80 92 % of control | dose: 50.0 mg/kg/injection, schedule: Q01DX001 (ip), vehicle: saline with Tween-80 92 % of control | dose: 100.0 mg/kg/injection, schedule: Q01DX001 (ip), vehicle: saline with Tween-80 87 % of control | dose: 200.0 mg/kg/injection, schedule: Q01DX001 (ip), vehicle: saline with Tween-80 86 % of control

ClCc1cnc[nH]1
inactive: [4] 116 % of control | [5] 111 % of control

CCCCc1ccc(C)c(O)c1
inactive: [6] 110 % of control | [7] 98 % of control

Cc1ccc(/C=N/n2c(-c3ccccc3Cl)nc3ccccc3c2=O)cc1
inactive: [1] 96 % of control | [2] 93 % of control | [3] 91 % of control

CN1CC[N+](C)=C1c1nc2ccccc2n1C
inactive: dose: 12.5 mg/kg/injection, schedule: Q01DX009 (ip), vehicle: suspension in saline 105 % of control | dose: 25.0 mg/kg/injection, schedule: Q01DX009 (ip), vehicle: suspension in saline 117 % of control | dose: 50.0 mg/kg/injection, schedule: Q01DX009 (ip), vehicle: suspension in saline 118 % of control

O=[N+]([O-])c1c(Nc2ccccc2)ncnc1Nc1ccccc1
inactive: dose: 100.0 mg/kg/injection, schedule: Q04DX003 (ip), vehicle: saline with Tween-80 105 % of control | dose: 200.0 mg/kg/injection, schedule: Q04DX003 (ip), vehicle: saline with Tween-80 106 % of control | dose: 400.0 mg/kg/injection, schedule: Q04DX003 (ip), vehicle: saline with Tween-80 100 % of control

CCCCC1CC=CC(NC#N)=N1 (configuration not stated)
inactive: [6] 100 % of control | [7] 104 % of control | [8] 115 % of control

COc1cccc(C2Nc3ccccc3C(=O)N2N2CCOCC2)c1 (configuration not stated)
inactive: [10] 100 % of control | [11] 94 % of control | [12] 96 % of control

CCc1n[nH]c(CC)c1CCCCCCOc1ccc(OC)cc1Cl
inactive: [1] 102 % of control | [13] 100 % of control | [2] 105 % of control | [14] 93 % of control | [3] 108 % of control | [15] 106 % of control

O=C(CSc1ccccn1)C1=S=C2C=CC=CN2C1=O
inactive: [1] 92 % of control | [2] 95 % of control | [3] 93 % of control

Cc1onc(-c2c(Cl)cccc2Cl)c1C(=O)OCCOc1ccc(C(F)(F)F)cc1[N+](=O)[O-]
inactive: [13] 91 % of control | [14] 98 % of control | [15] 92 % of control

CC(=O)Nc1ccc2c(c1)N(O)C(=O)C2(C)C
inactive: [10] 97 % of control | [11] 95 % of control | [12] 102 % of control

COc1cc([C@@H]2c3cc4c(c(O)c3C[C@H]3COC(=O)[C@@H]32)OCO4)cc(OC)c1OC
inactive: dose: 0.12 mg/kg/injection, schedule: Q01DX009 (ip), vehicle: saline 113 % of control | dose: 0.12 mg/kg/injection, schedule: Q01DX009 (ip), vehicle: suspension in saline 111 % of control | dose: 0.25 mg/kg/injection, schedule: Q01DX009 (ip), vehicle: saline 119 % of control | dose: 0.25 mg/kg/injection, schedule: Q01DX009 (ip), vehicle: suspension in saline 119 % of control | dose: 0.5 mg/kg/injection, schedule: Q01DX009 (ip), vehicle: saline 124 % of control

NC1[N-]C(C2CCCC[N-]2)CC2C(Cl)CCCC12.O=[N+]([O-])O.O=[N+]([O-])O.[Cu+2] (configuration not stated)
inactive: dose: 6.25 mg/kg/injection, schedule: Q04DX002 (ip), vehicle: suspension in saline 101 % of control | dose: 12.5 mg/kg/injection, schedule: Q04DX002 (ip), vehicle: suspension in saline 111 % of control

Cc1c2oc3c(C)ccc(C(=O)OCCN4CCCCC4)c3nc-2c(C(=O)OCCN2CCCCC2)c(N)c1=O
inactive: dose: 6.25 mg/kg/injection, schedule: Q01DX009 (ip), vehicle: saline with Tween-80 100 % of control | [16] 99 % of control | [9] 107 % of control | [6] 113 % of control

CCCCCCCCCCC(N)P(=O)(O)O (configuration not stated)
inactive: [16] 104 % of control | [9] 100 % of control | [6] 100 % of control

O=C(O)CCCC/C=C/CCCCCCC1C=CCC1 (configuration not stated)
inactive: dose: 100.0 mg/kg/injection, schedule: Q04DX003 (ip), vehicle: saline 93 % of control | dose: 200.0 mg/kg/injection, schedule: Q04DX003 (ip), vehicle: saline 98 % of control | dose: 400.0 mg/kg/injection, schedule: Q04DX003 (ip), vehicle: saline 91 % of control

CC(C)(C)OC(=O)NC(Cc1c[nH]c2ccccc12)C(=O)O (configuration not stated)
inactive: [10] 102 % of control | [11] 101 % of control | [12] 101 % of control

CC(C)COC1CC(C)(C)c2c(-c3ccccc3)nn(-c3ccccc3)c2O1 (configuration not stated)
inactive: [16] 93 % of control | [9] 93 % of control | [6] 88 % of control and 93 % of control

CCSC(C#N)C(C)=O (configuration not stated)
inactive: dose: 12.5 mg/kg/injection, schedule: Q01DX009 (ip), vehicle: saline 106 % of control | dose: 25.0 mg/kg/injection, schedule: Q01DX009 (ip), vehicle: saline 97 % of control | [6] 100 % of control | [4] 100 % of control

Cc1cccc(C)c1NC(=S)NC(=O)c1cccc(Cl)c1
inactive: dose: 25.0 mg/kg/injection, schedule: Q01DX005 (ip), vehicle: Klucel (hydroxypropylcellulose) (HPC) 94 % of control | [10] 92 % of control | [11] 97 % of control

CC(C)[N+](C)(C)CC(O)COc1cccc2ccccc12 (configuration not stated)
inactive: [4] 104 % of control

O=[N+]([O-])c1cccc(SNCCO)c1
inactive: [16] 108 % of control | [9] 100 % of control | [6] 100 % of control and 94 % of control

CN1C=CC2C(C#N)CC2C1=O (configuration not stated)
inactive: dose: 100.0 mg/kg/injection, schedule: Q04DX002 (ip), vehicle: saline with Tween-80 101 % of control | dose: 200.0 mg/kg/injection, schedule: Q04DX002 (ip), vehicle: saline with Tween-80 110 % of control | dose: 400.0 mg/kg/injection, schedule: Q04DX002 (ip), vehicle: saline with Tween-80 110 % of control

Source: PubChem BioAssay AID330 (DTP/NCI, 2004)
